Columns and labels:
[1] = biological target: T1, HER2 wildtype (WT) protein (Homo sapiens, UniProt P04626); assay: HER2 signaling (pHER2 Tyr1248/total HER2 MSD) in N87 cells; format: cell-based; settings: 1.5 hr compound, 1% FBS
T1 construct: BT474 and N87 cell lines which endogenously overexpress the HER2 wildtype (WT) protein; endogenous in cells; host or cells: BT474, N87
Procedure: In addition to the engineered cell lines, the following cell lines were used: BT474 (human breast carcinoma), N87 (human gastric carcinoma), NCI-H1781 (human lung adenocarcinoma), and A431 (human epidermoid carcinoma); all cell lines were obtained from the American Type Culture Collection (ATCC, Manassas, VA). NCI-H1781 were grown in complete RPMI 1640 (Life Technologies, Carlsbad, CA) supplemented with 15% fetal bovine serum (FBS, Life Technologies, Carlsbad, CA) and 1% Penicillin-Streptomycin (P/S, Life Technologies, Carlsbad, CA). N87 cells were grown in complete RPMI 1640 supplemented with 10% FBS and 1% P/S. BT474 and A431 cells were grown in DMEM (Life Technologies, Carlsbad, CA) supplemented with 10% FBS and 1% P/S. All cells were maintained and propagated in a humidified 5% CO2 incubator at 37° C.
HER2 signaling was assessed in BT474 and N87 cell lines which endogenously overexpress the HER2 wildtype (WT) protein, in NCI-H1781 cells which endogenously expresses a HER2 mutant protein containing a VC insertion in the kinase domain (HER2VC or G776delinsVC), and in engineered cell lines transduced to express the Her2 mutant protein containing the YVMA insertion (Hek293-HER2YVMA and BEAS2B-HER2YVMA).
BT474, N87, and NCI-H1781 were plated in 96-well tissue-culture treated plates (Corning Costar, Sigma-Aldrich) in full media and incubated overnight. Hek293-HER2YVMA and BEAS2B-HER2YVMA cells were plated in 96-well poly-D-lysine treated plates (BD Bioscience, San Jose, CA). For treatment with test compounds, the media was replaced with corresponding low serum media (1% FBS) containing test compound at 1.1, 0.37, 0.12, 0.041, 0.014, 0.005, 0.0014, 0.0005 μM or DMSO control (0.1%). Cells were incubated with compound for 1.5 hr at 37° C. After compound treatment, the media was removed and cells were lysed for 30 min on ice in complete MSD lysis buffer (prepared using MSD base lysis buffer (Meso-Scale Discovery) supplemented with cOmplete, EDTA-free Protease inhibitor cocktail (Roche), Phosphatase Inhibitor Cocktails 2 and 3 (Sigma-Aldrich), and 1 mM PMSF (Sigma-Aldrich)). Lysates were stored at −70° C. until further analysis.
HER2 signaling was evaluated using phospho (Tyr1248)/total ErbB2 whole cell lysate MSD plates (Meso-Scale Discovery, Gaithersburg, MD). The phospho HER2 signal was normalized to total HER2 for each sample; results are reported as % DMSO control. The normalized data was fitted using a sigmoidal curve analysis program (Graph Pad Prism version 6) with variable Hill slope to determine EC50 values.
The HER2 signaling results are provided in Table 4, under columns titled “BT474-pHER2 EC50”, “N87-pHER2 EC50”, and “NCI-H1781-pHER2 EC50”. Hek293-HER2YVMA ins fall under the heading “HEKYVMA-pHER2 EC50”, Ba/F3 HER2YVMA fall under the heading “Ba/F3 YVMA-pHER2 EC50” and BEAS2B-HER2YVMA fall under the heading “BEAS2B YVMA-pHER2 EC50”.

HER2YVMA = HER2YVMA (Homo sapiens, UniProt P04626, INS775YVMA); assay: HER2 signaling (pHER2) in Hek293-HER2YVMA cells; format: cell-based; set-up: expressed in transfected cells; host or cells: HEK293 (pool), Ba/F3 (clones), BEAS2B (clones); lentiviral vector pCDH-CMV-MCS-EF1-Neo; settings: 1.5 hr compound, 1% FBS, read-out: HEKYVMA pHER2 EC50
Outline: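 Lentivirally transduced HER2YVMA lines (HEK293 pool; BEAS2B clone) treated 1.5 h at 37 °C in 1% FBS medium with compound at 0.0005–1.1 μM. Lysates read by MSD immunoassay for pHER2 (Tyr1248) normalized to total HER2, as % DMSO control; EC50 from variable-slope sigmoidal fit.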

HER2YVMA, sequence (P04626 with tags, fused parts or gaps INS775YVMA): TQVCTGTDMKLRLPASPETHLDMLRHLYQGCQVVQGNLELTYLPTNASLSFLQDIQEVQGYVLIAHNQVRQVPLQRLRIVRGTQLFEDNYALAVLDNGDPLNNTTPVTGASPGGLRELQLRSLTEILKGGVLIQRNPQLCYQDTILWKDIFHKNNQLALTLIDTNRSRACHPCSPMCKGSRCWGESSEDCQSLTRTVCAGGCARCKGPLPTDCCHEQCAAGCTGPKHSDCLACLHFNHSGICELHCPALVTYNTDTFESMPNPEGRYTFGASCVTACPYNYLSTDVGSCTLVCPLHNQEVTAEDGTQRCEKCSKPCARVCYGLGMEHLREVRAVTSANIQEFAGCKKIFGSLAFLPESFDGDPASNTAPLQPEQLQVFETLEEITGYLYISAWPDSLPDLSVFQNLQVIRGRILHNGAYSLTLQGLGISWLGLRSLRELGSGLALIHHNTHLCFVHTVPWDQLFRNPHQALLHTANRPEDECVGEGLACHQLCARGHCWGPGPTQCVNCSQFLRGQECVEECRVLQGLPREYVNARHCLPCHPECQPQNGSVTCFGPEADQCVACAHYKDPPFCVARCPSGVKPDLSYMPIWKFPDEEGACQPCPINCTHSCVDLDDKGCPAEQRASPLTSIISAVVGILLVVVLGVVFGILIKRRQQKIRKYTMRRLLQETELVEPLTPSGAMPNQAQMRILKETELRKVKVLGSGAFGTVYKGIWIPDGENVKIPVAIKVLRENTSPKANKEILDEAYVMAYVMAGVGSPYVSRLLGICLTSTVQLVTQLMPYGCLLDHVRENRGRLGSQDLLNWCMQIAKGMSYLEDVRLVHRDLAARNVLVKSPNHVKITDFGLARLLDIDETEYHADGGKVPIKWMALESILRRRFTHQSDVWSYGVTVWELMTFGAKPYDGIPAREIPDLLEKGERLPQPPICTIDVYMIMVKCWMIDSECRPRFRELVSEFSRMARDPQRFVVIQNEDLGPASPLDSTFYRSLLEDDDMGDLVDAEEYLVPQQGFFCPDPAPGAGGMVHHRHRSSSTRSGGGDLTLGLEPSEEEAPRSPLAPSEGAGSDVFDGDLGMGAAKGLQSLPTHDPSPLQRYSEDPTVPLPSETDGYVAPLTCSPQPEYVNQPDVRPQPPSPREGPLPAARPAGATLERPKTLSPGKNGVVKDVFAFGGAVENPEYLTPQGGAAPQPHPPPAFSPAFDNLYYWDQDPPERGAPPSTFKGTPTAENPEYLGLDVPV
T1 sequence (P04626 23-1255): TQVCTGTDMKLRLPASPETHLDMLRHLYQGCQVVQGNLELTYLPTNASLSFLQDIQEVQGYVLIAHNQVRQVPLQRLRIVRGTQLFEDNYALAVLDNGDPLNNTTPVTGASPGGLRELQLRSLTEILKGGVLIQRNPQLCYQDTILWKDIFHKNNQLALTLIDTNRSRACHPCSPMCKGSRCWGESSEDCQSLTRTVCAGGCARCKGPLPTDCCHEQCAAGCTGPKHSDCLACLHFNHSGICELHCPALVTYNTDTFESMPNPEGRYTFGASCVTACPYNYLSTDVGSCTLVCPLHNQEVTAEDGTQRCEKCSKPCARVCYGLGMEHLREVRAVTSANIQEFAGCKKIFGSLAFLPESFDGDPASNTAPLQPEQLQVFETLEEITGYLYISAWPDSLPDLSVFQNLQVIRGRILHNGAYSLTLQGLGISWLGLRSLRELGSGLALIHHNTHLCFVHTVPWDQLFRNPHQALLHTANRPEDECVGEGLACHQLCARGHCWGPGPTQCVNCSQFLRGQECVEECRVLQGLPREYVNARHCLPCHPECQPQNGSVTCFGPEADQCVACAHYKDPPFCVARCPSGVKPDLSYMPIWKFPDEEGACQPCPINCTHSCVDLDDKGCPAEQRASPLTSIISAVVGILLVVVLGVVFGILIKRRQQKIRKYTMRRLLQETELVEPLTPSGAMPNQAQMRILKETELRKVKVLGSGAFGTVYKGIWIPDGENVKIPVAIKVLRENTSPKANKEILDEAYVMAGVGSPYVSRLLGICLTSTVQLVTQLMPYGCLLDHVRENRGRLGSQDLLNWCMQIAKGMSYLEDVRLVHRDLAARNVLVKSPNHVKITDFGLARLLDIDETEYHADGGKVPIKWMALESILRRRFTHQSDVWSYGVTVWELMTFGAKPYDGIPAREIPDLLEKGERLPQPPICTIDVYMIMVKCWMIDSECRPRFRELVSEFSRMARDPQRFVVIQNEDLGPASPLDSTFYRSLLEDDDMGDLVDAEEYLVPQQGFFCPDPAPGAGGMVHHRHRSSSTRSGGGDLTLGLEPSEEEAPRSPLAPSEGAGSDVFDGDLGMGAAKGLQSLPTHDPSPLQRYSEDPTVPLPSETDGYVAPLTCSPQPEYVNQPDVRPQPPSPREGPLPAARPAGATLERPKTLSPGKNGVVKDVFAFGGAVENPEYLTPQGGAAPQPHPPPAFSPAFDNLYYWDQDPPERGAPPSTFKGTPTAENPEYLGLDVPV

Structure (SMILES)	EC50 [1]	EC50 (HER2YVMA)
Cc1ccc(Oc2ccc(Nc3ncnc4sc5c(c34)C(C)CN(C(=O)C=CCN(C)C)C5)cc2C)cn1 (single isomer, unassigned) [Compound 105]	< 0.1 µM	< 0.1 µM
Cc1ccc(Oc2ccc(Nc3ncnc4sc5c(c34)C(C)CN(C(=O)C=CCN(C)C)C5)cc2C)cn1 (single isomer, unassigned) [Compound 106]	< 0.1 µM	< 0.1 µM
CN(C)C/C=C/C(=O)N1CCc2c(sc3ncnc(Nc4ccc(Oc5ccc6ncnn6c5)c(Cl)c4)c23)C1 [Compound 5, (E)-1-(4-((4-([1,2,4]triazolo[1,5-a]pyridin-6-yloxy)-3-chlorophenyl)amino)-5,8-dihydropyrido[4′,3′:4,5]thieno[2,3-d]pyrimidin-7(6H)-yl)-4-(dimethylamino)but-2-en-1-one]	< 0.1 µM	< 0.1 µM
Cc1ccc(Oc2ccc(Nc3ncnc4sc5c(c34)CCN(C(=O)/C=C/CN(C)C(C)(C)C)C5)cc2C)cn1 [Compound 33]	< 0.1 µM	< 0.1 µM
Cc1ccc(Oc2ccc(Nc3ncnc4sc5c(c34)CCN(C(=O)/C=C/CNC34CCC(C#N)(CC3)CC4)C5)cc2C)cn1 [Compound 72]		< 0.1 µM
Cc1ccc(Oc2ccc(Nc3ncnc4sc5c(c34)CCN(C(=O)/C=C/CN[C@H]3CCC[C@H](O)C3)C5)cc2C)cn1 [Compound 73]		< 0.1 µM
Cc1ccc(Oc2ccc(Nc3ncnc4sc5c(c34)CCN(C(=O)/C=C/CN3CCC(O)C3)C5)cc2C)cn1 (stereo not shown) [Compound 74]		< 0.1 µM
Cc1ccc(Oc2ccc(Nc3ncnc4sc5c(c34)CCN(C(=O)/C=C/CN[C@@H](C)CO)C5)cc2C)cn1 [Compound 75]		< 0.1 µM
Cc1ccc(Oc2ccc(Nc3ncnc4sc5c(c34)CCN(C(=O)/C=C/CN3CC4CC4C3)C5)cc2C)cn1 (stereo not shown) [Compound 76]		< 0.1 µM
Cc1cc(Nc2ncnc3sc4c(c23)CCN(C(=O)/C=C/CN2CC3CC2CO3)C4)ccc1Oc1ccc2ncnn2c1 (stereo not shown) [Compound 77]		0.1 to 0.35 µM
Cc1cc(Nc2ncnc3sc4c(c23)CCN(C(=O)/C=C/CN(C)C(C)(C)C)C4)ccc1Oc1ccc2ncnn2c1 [Compound 80]		< 0.1 µM
Cc1cc(Nc2ncnc3sc4c(c23)CCN(C(=O)/C=C/CN2CC3C(CO)C3C2)C4)ccc1Oc1ccc2ncnn2c1 (stereo not shown) [Compound 81]		< 0.1 µM
Cc1cc(Nc2ncnc3sc4c(c23)CCN(C(=O)/C=C/CN2CC3CC(C3)C2)C4)ccc1Oc1ccc2ncnn2c1 [Compound 82]		< 0.1 µM
Cc1cc(Nc2ncnc3sc4c(c23)CCN(C(=O)/C=C/CN2CC(C)OC(C)C2C)C4)ccc1Oc1ccc2ncnn2c1 (stereo not shown) [Compound 83]		< 0.1 µM
Cc1cc(Nc2ncnc3sc4c(c23)CCN(C(=O)/C=C/CN2CC(C)(C)OC(C)(C)C2)C4)ccc1Oc1ccc2ncnn2c1 [Compound 84]		0.1 to 0.35 µM
O=C(/C=C/CN1CC2CC(C2)C1)N1CCc2c(sc3ncnc(Nc4ccc(Oc5ccc6ncnn6c5)c(Cl)c4)c23)C1 [Compound 85]		< 0.1 µM
C=C(CN1CCc2c(sc3ncnc(Nc4ccc(Oc5ccc(C)nc5)c(C)c4)c23)C1)C(=O)OCC [Compound 86, Ethyl 2-((4-((3-methyl-4-((6-methylpyridin-3-yl)oxy)phenyl)amino)-5,8-dihydropyrido[4′,3′:4,5]thieno[2,3-d]pyrimidin-7(6H)-yl)methyl)acrylate]		< 0.1 µM
O=C(/C=C/CN1CC2CC1CO2)N1CCc2c(sc3ncnc(Nc4ccc(Oc5ccc6ncnn6c5)c(Cl)c4)c23)C1 (stereo not shown) [Compound 87]		< 0.1 µM
O=C(/C=C/CN1CC2CCC(C2)C1)N1CCc2c(sc3ncnc(Nc4ccc(Oc5ccc6ncnn6c5)c(Cl)c4)c23)C1 [Compound 88]		< 0.1 µM
CN(C/C=C/C(=O)N1CCc2c(sc3ncnc(Nc4ccc(Oc5ccc6ncnn6c5)c(Cl)c4)c23)C1)C(C)(C)C [Compound 91]		< 0.1 µM
O=C(/C=C/CN1CC2C(CO)C2C1)N1CCc2c(sc3ncnc(Nc4ccc(Oc5ccc6ncnn6c5)c(Cl)c4)c23)C1 (stereo not shown) [Compound 92]		< 0.1 µM
C=CC(=O)N1CCc2[nH]c3ncnc(Nc4ccc(Oc5ccc(C)nc5)c(C)c4)c3c2C1 [Compound 94, 1-(4-((3-methyl-4-((6-methylpyridin-3-yl)oxy)phenyl)amino)-7,8-dihydro-5H-pyrido[3′,4′:4,5]pyrrolo[2,3-d]pyrimidin-6(9H)-yl)prop-2-en-1-one]		< 0.1 µM
CCOC/C=C/C(=O)N1CCc2c(sc3ncnc(Nc4ccc(Oc5ccc(C)nc5)c(C)c4)c23)C1 [Compound 96, (E)-4-ethoxy-1-(4-((3-methyl-4-((6-methylpyridin-3-yl)oxy)phenyl)amino)-5,8-dihydropyrido[4′,3′:4,5]thieno[2,3-d]pyrimidin-7(6H)-yl)but-2-en-1-one]		< 0.1 µM
Cc1ccc(Oc2ccc(Nc3ncnc4[nH]c5c(c34)CN(C(=O)/C=C/CN(C)C)CC5)cc2C)cn1 [Compound 97, (E)-4-(dimethylamino)-1-(4-((3-methyl-4-((6-methylpyridin-3-yl)oxy)phenyl)amino)-5,7,8,9-tetrahydro-6H-pyrido[3′,4′:4,5]pyrrolo[2,3-d]pyrimidin-6-yl)but-2-en-1-one]		0.1 to 0.35 µM
Cc1ccc(Oc2ccc(Nc3ncnc4sc5c(c34)C(C)CN(C(=O)/C=C/CN(C)C)C5)cc2C)cn1 (stereo not shown) [Compound 98, (E)-4-(dimethylamino)-1-(5-methyl-4-((3-methyl-4-((6-methylpyridin-3-yl)oxy)phenyl)amino)-5,8-dihydropyrido[4′,3′:4,5]thieno[2,3-d]pyrimidin-7(6H)-yl)but-2-en-1-one]		< 0.1 µM
Cc1ccc(Oc2ccc(Nc3ncnc4sc5c(c34)CN(C(=O)/C=C/CN(C)C)C5)cc2C)cn1 [Compound 99, (E)-4-(dimethylamino)-1-(4-((3-methyl-4-((6-methylpyridin-3-yl)oxy)phenyl)amino)-5,7-dihydro-6H-pyrrolo[3′,4′:4,5]thieno[2,3-d]pyrimidin-6-yl)but-2-en-1-one]		< 0.1 µM
Cc1ccc(Oc2ccc(Nc3ncnc4sc5c(c34)CCCN(C(=O)/C=C/CN(C)C)C5)cc2C)cn1 [Compound 101, (E)-4-(Dimethylamino)-1-(4-((3-methyl-4-((6-methylpyridin-3-yl)oxy)phenyl)amino)-6,7-dihydro-5H-pyrimido[5′,4′:4,5]thieno[2,3-c]azepin-8(9H)-yl)but-2-en-1-one]		< 0.1 µM
C=CC(=O)N1CCc2[nH]c3ncnc(Nc4ccc(Oc5ccc6ncnn6c5)c(C)c4)c3c2C1 [Compound 102, 1-(4-((4-([1,2,4]triazolo[1,5-a]pyridin-6-yloxy)-3-methylphenyl)amino)-5,7,8,9-tetrahydro-6H-pyrido[3′,4′:4,5]pyrrolo[2,3-d]pyrimidin-6-yl)prop-2-en-1-one]		0.1 to 0.35 µM
Cc1cc(Nc2ncnc3sc4c(c23)CN(C(=O)/C=C/CN(C)C)CC4)ccc1Oc1ccc2ncnn2c1 [Compound 103, (E)-1-(4-((4-([1,2,4]triazolo[1,5-a]pyridin-6-yloxy)-3-methylphenyl)amino)-7,8-dihydropyrido[3′,4′:4,5]thieno[2,3-d]pyrimidin-6(5H)-yl)-4-(dimethylamino)but-2-en-1-one]		< 0.1 µM
Cc1cc(Nc2ncnc3sc4c(c23)CCN(C(=O)/C=C/CN(C)C)C4)ccc1Oc1ccc2nonc2c1 [Compound 104, (E)-1-(4-((4-(Benzo[c][1,2,5]oxadiazol-5-yloxy)-3-methylphenyl)amino)-5,6-dihydropyrido[4′,3′:4,5]thieno[2,3-d]pyrimidin-7(8H)-yl)-4-(dimethylamino)but-2-en-1-one]		< 0.1 µM
